Assay results: patent US9718811B2, “(S)-enantiomer of mepazine” (Helmholtz Zentrum München—Deutsches Forschungszentrum für …, priority 2013, dated 2017)
Entries after “also recorded” stand apart in the source; their conditions may differ.

Legend:
[1] = biological target: T1, human MALT1 (L339-R719) (Homo sapiens, UniProt Q9UDY8); test: Tryptophan fluorescence quenching assay; conditions: monomeric MALT1 (L339-R719), quenching of W580, 20° C.; FIG. 2a/b; read-out: binding affinity KD
T1 construct: human MALT1 (L339-R719) was used; only implied by the Ni-NTA purification; made in house; host or cells: Escherichia coli Rosetta (DE3)
T1 sequence (Q9UDY8 339-719): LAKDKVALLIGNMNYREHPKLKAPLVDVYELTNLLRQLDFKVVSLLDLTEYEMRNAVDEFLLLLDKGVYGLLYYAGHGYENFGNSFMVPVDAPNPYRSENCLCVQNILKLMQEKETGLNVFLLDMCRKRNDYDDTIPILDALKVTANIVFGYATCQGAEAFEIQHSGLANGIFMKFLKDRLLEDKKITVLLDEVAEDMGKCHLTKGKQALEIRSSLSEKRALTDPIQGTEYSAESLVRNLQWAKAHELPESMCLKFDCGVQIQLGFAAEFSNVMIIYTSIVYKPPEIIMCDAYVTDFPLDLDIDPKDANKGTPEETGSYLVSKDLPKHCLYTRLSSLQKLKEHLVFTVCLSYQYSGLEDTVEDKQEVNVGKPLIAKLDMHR
Experimental: For crystallization and tryptophan fluorescence quenching human MALT1 (L339-R719) was used.
Fluorescence quenching of tryptophan W580 was measured with the fluorescence spectrometer (FluoroMax-P, HORIBA Jobin Yvon) at an extinction wavelength of 285 nm and an emission wavelength of 329 nm. The measurement was performed by 2 μl titration steps of 400 μM, 800 μM, 4 mM, 8 mM thioridazine and mepazine stock solutions in H2O against 0.5 μM monomeric MALT1 (L339-R719) in 1.6 ml assay buffer (5 mM Hepes pH 7.0, 300 mM NaCl) at 20° C. The quenching assay of thioridazine and mepazine enantiomers was performed equally to racemates measurements.
For this assay advantage was taken from the fact that W580 is the only tryptophan residue in the MALT1Casp-Ig3 construct and is in close proximity to the bound tricyclic moiety of the phenothiazine derivatives.

[2] = biological target: T2, GST-MALT1325-760 (Homo sapiens, UniProt Q9UDY8); test: MALT1 paracaspase activity (fluorogenic cleavage) assay
T2 sequence (Q9UDY8 325-760 limits assumed): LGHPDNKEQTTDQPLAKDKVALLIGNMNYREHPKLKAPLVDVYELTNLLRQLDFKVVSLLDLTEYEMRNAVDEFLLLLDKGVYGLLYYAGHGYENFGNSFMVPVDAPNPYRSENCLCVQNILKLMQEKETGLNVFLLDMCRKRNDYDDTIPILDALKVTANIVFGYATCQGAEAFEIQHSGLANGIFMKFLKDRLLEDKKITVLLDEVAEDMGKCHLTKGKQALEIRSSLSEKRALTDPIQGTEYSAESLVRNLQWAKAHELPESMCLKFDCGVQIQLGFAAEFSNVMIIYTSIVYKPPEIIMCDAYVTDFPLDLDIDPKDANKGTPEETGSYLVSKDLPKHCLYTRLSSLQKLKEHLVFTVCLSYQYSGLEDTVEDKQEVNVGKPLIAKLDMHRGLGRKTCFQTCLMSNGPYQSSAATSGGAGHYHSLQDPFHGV

[3] = CIA (collagen induced arthritis) model; type: in vivo, DBA1/J mice; conditions: paw histopathology
[4] = system: GCB DLBCL cell-line Su-DHL-6; test: DLBCL xenograft model, Su-DHL-6 control tumor; type: in vivo, mice (NSG); conditions: 6 or 12 mg/kg IP once daily, started 13 days after transplantation
Experimental: (§1) Tumors were engrafted in 6- to 8-week-old female NOD.Cg-Prkdc^scid I12rg^tm1Wj1/SzJ (NSG) mice by subcutaneous injection of 4×10^6 tumor cells (OCI-Ly10 or Su-DHL-6) resuspended in matrigel (BD). Both tumors were engrafted simultaneously on opposite flanks of individual mice, with four mice for each treatment group. […] A daily application of 150 or 300 μg of compound per animal (˜25 g) was used, corresponding to approximately 6 or 12 mg/kg, respectively. The tumor size was measured every other day after visual appearance using a caliper and calculated as square millimeters (length×width). Mice were sacrificed when the tumors were above 250 mm^2 and statistical data was analyzed with a two-way ANOVA test.
(§2) In the DLBCL xenograft model NSG mice were subcutaneously injected with the MALT1-dependent ABC DLBCL cell line OCI-Ly10 and the MALT1-independent GCB DLBCL cell-line Su-DHL6 in opposing flanks of individual mice.

[5] = system: ABC DLBCL cell-line OCI-Ly10; test: DLBCL xenograft model, OCI-Ly10 tumor; type: in vivo, mice (NSG); conditions: 6 or 12 mg/kg IP once daily, started 13 days after transplantation
Experimental: as §1, §2

[6] = Chronic progressive EAE (experimental allergic encephalomyelitis) model; type: in vivo, C57Bl/6 mice
Experimental: For the EAE model first 1 mg/ml MOG35-55 peptides (MOG: myelin/oligodendrocyte glycoprotein; accession no. AAF74786) were emulsified 1:1 in Complete Freund's Adjuvant (CFA, incl. 5 mg/ml heat-killed M. tuberculum H37RA). On day one female C57Bl/6 mice (8-10 weeks old) were subcutaneously treated with 0.1 ml of MOG/CFA (0.1 mg MOG/0.25 mg CFA per mouse) in both flanks. In addition 0.2 ml pertussis toxin ([…]) was intraperitoneally injected immediately after (200 ng per mouse), followed by a second injection the day after. […] The clinical score of the mice was determined according to the following parameters: Score 0=no obvious signs of motor dysfunction in mice compared to non-immunized control; 0.5—distal tail limpness; 1=limp or floppy tail; 2=limp tail and weakness in hind legs; 3=limp tail and complete paralysis of hind legs OR limp tail with paralysis of one front and one hind leg; 4=limp tail, complete hind leg and partial front leg paralysis; 5=complete hind and complete front leg paralysis, no movement around cage OR mouse is spontaneously rolling in cage OR mouse found dead due to paralysis.
At the end of the study mice were euthanized and blood serum and also the brain and the spinal cord was collected for a histopathology analysis. Here foci of inflammatory cell infiltrate (at least 50 μm) into the spinal cord were counted and scored using the following criteria: 0=normal; 0.5 very minimal; 1=minimal, 2-4 generally less than 100 μm width/length; 2=mild, 5-7 small discreet foci; 3=moderate, 8-10 small plus larger coalescing areas; 4=marked, 11-13 small plus larger coalescing areas; 5=severe, often multiple coalescing >13. Percent area of white matter that bad demyelination, edema, dilated axons was estimated and used to determine a score using the following criteria: 0=normal; 1=minimal, 1-5% of total are affected; 2=mild, 5-25% of total area affected; 3=moderate, 26-50% of total area affected; 4=marked, 51-75% of total area affected; 5=>75% of total area affected.

[7] = Racemization check by chiral HPLC; type: physicochemical
Experimental: Enantiomeric purity of the thioridazine and mepazine enantiomers was determined by comparison to commercially available racemates using a ChiralPak IA 250×4.6 mm (L×I.D.) […] tris(3,5-dimethylphenylcarbamate) column. For thioridazine an isocratic gradient of 1% ethanol in hexane containing 0.1% diethylamine modifier was used. In the case of mepazine an isocratic gradient of 1% isopropanol in hexane containing 0.1% diethylamine modifier was used. Both were run at 1 ml/min.
(S)-Mepazine provided a single peak by Chiral HPLC under conditions in which the individual enantiomers are resolved.

[8] = IC50 (MALT1 cleavage assay), wt GST-MALT1325-760, Ac-LRSR-AMC substrate, FIG. 2c/d
[9] = IC50 on recombinant MALT1 (fluorogenic MALT1 cleavage assay), FIG. 3a/b
[10] = IP 8 mg/kg twice daily, histopathology, 8 mg/kg

Kd [1] [µM]	IC50 [2, 8] [µM]	IC50 [2, 9] [µM]	racemization on standing or in solution [7]	Structure (SMILES)	CIA-related inflammation [3]	bone resorption [3]	cartilage damage [3]	pannus formation [3]	growth of the GCB DLBCL (Su-DHL-6) control tumor [4]	growth of the ABC DLBCL (OCI-Ly10) tumor [5]	EAE induced weight loss ([6]; IP 8 mg/kg twice daily)	EAE severity (clinical score) ([6]; IP 8 mg/kg twice daily (16 mg/kg), started at clinical score of around 1)	demyelination in the spinal cord [6, 10]	inflammatory foci formation in the spinal cord [6, 10]
23 ± 0.6	5 ± 1.5	4.99 ± 1.52	–	CSc1ccc2c(c1)N(CCC1CCCCN1C)c1ccccc1S2 (single isomer, unassigned) [(R)-thioridazine]	–	–	–	–	–	–	–	–	–	–
21.3 ± 0.5	4.8 ± 0.9	4.83 ± 0.88	–	CSc1ccc2c(c1)N(CCC1CCCCN1C)c1ccccc1S2 (single isomer, unassigned) [(S)-thioridazine]	–	–	–	–	–	–	–	–	–	–
–	–	–	No racemization	CN1CCC[C@H](CN2c3ccccc3Sc3ccccc32)C1 [(S)-mepazine, 10-{[(3S)-1-methylpiperidin-3-yl]methyl}-10H-phenothiazine]	strong reduction; also recorded: decrease	strong reduction; also recorded: decrease	strong reduction; also recorded: decrease	strong reduction; also recorded: decrease	not affected	selective growth reduction	reduced EAE induced weight loss	reduction of EAE severity	reduced; also recorded: inhibition	reduced; also recorded: inhibition
